Our source for the inhibition values is patent publication US20260053171A1, “METHANOGEN INHIBITORS” (AGRIZERONZ LIMITED PARTNERSHIP, priority 2022, published 2026).

The assay relates to methane production in rumen fluid. Nature of the assay: Rumen in vitro (RIV) assay, methane production from rumen fluid incubations. The class given is cell-based, cattle. The note with it: Bos taurus, read-out: RIV % methane reduction +/− SD. The protocol:
The compounds of the present invention were initially screened for activity using an in vitro fully automated incubation system for the measurement of total gas production and gas composition (methane and hydrogen). The system used is described in detail in the paper by Muetzel et al. (2014; Animal Feed Science and Technology 196, 1-11). The system in this specification is referred to as the rumen in vitro system or RIV. The RIV system provides a relatively simple tool for determining the rate and production of methane and also whether the rate and production of methane is inhibited or reduced by a particular compound or feed. Rumen in vitro assays use rumen fluid from donor animals (typically either sheep or cattle) which is typically combined with a buffer and then incubated in sealed fermentation vessels at 39° C. for either 24 or 48 h. These assays systems have been well-characterised and used by the scientific community over the last two decades (Rymer et al. 2005). The system that has been used here to characterise the effects of inhibitors on methane production and gas production, and the formation of H2, was described by Muetzel et al. (2014). Rumen in vitro assay systems reflect what can occur in the rumen in vivo, but only short-term, due to their short incubation times (typically not exceeding 48 h) which is limited by its buffering capacity and the fact that it is a closed system. Stock solutions of inhibitors were re-suspended in dimethylformamide (DMF) at concentrations 1000-fold higher than the highest used for the assays. Any further dilutions were also prepared using DMF. The total amount of inhibitor solution added to the rumen fluid-buffer mixture (60 mL) was 60 μl. Incubations used 60 ml of medium containing 12 ml of filtered rumen fluid and 48 ml of buffer in serum bottles for 24-48 h, essentially as described by Muetzel et al. (2014). Two fistulated cattle were used as donor animals for rumen fluid and treatments were incubated in duplicate bottles. Sets of duplicate incubation vials that contained ryegrass (with rumen fluid-buffer mixture), and ryegrass with 30 μM bromoethanesulfonate (BES) were also incubated as negative and positive controls, respectively. One experiment consists of 2 replicates of an inhibitor at any one concentration run at the same time, and a run can contain up to 32 bottle, including positive (30 µM BES) and negative (no inhibitor added) controls. Compound 1, for example, was tested using the 60 mL rumen in vitro assay system at 50 μM, 10 μM, and 2 μM final concentrations and compared to a positive control with 30 µM BES.

SMILES strings stand for the structures.

On to `COc1cccc(C2CC(c3ccc(Cl)cc3)=NN2C(=O)CCC(=O)O)c1` (centres unmarked) [Compound 41, 4-(3-(4-Chlorophenyl)-5-(3-methoxyphenyl)-4,5-dihydro-1H-pyrazol-1-yl)-4-oxobutanoic acid], for which the inhibition at 50 µM was found to be 13.4 ± 3.2%. Take `O=C(O)CCC(=O)N1N=C(c2ccc(-c3ccc(SC(F)(F)F)cc3)cc2)CC1c1ccc2nccnc2c1` (centres unmarked) [Compound 94, 4-Oxo-4-(5-(quinoxalin-6-yl)-3-(4′-((trifluoromethyl)thio)-[1,1′-biphenyl]-4-yl)-4,5-dihydro-1H-pyrazol-1-yl)butanoic acid]: the inhibition at 10 µM came out at 32.7 ± 1.2%.

For the molecule `O=C(O)CCC(=O)N1N=C(c2ccc(-c3ccccc3)cc2)CC1c1ccc2nccnc2c1` (centres unmarked) [Compound 15, 4-(3-([1,1′-Biphenyl]-4-yl)-5-(quinoxalin-6-yl)-4,5-dihydro-1H-pyrazol-1-yl)-4-oxobutanoic acid], the inhibition at 2 µM was under 5%, the inhibition at 10 µM stood at 60.1 ± 1% and the inhibition at 50 µM turned out to be 87.8 ± 1.6%. For `O=C(O)CCC(=O)N1N=C(c2ccc(Cl)cc2)CC1c1ccc2nccnc2c1` (centres unmarked) [Compound 1, 4-(3-(4-Chlorophenyl)-5-(quinoxalin-6-yl)-4,5-dihydro-1H-pyrazol-1-yl)-4-oxobutanoic acid], the inhibition at 50 µM is 37.6 ± 1.3%. Turning to `CS(=O)(=O)NC(=O)CCC(=O)N1N=C(c2cccc(-c3ccccc3)c2)CC1c1ccc2nccnc2c1` (centres unmarked) [Compound 68, 4-(3-([1,1′-Biphenyl]-3-yl)-5-(quinoxalin-6-yl)-4,5-dihydro-1H-pyrazol-1-yl)-N-(methylsulfonyl)-4-oxobutanamide], the inhibition at 2 µM is 20.5 ± 1.4% and the inhibition at 10 µM was determined as 85.4 ± 0.5%.

With `O=C(O)CCC(=O)N1N=C(c2ccc(Oc3ccccc3)cc2)CC1c1ccc2nccnc2c1` (centres unmarked) [Compound 7, 4-Oxo-4-(3-(4-phenoxyphenyl)-5-(quinoxalin-6-yl)-4,5-dihydro-1H-pyrazol-1-yl)butanoic acid], the inhibition at 10 µM is 30.7 ± 3.6% and the inhibition at 50 µM stood at 66.4 ± 14.7%. Take `CCCOc1ccc(-c2ccc(C3=NN(C(=O)CCC(=O)O)C(c4ccc5nccnc5c4)C3)cc2)cc1` (centres unmarked) [Compound 78, 4-Oxo-4-(3-(4′-propoxy-[1,1′-biphenyl]-4-yl)-5-(quinoxalin-6-yl)-4,5-dihydro-1H-pyrazol-1-yl)butanoic acid]: the inhibition at 2 µM came to 39.8 ± 18.5% and the inhibition at 10 µM worked out at 88.8 ± 2%.

For `O=C(O)CCC(=O)N1N=C(c2ccc(-c3ccccc3)cc2)CC1c1ccc2nonc2c1` (centres unmarked) [Compound 111, 4-(3-([1,1′-Biphenyl]-4-yl)-5-(benzo[c][1,2,5]oxadiazol-5-yl)-4,5-dihydro-1H-pyrazol-1-yl)-4-oxobutanoic acid], the inhibition at 10 µM came out at 43.3 ± 9%.

Take `O=C(O)CCC(=O)N1N=C(c2ccc(Cl)cc2)CC1c1cccc2nccnc12` (centres unmarked) [Compound 33, 4-(3-(4-Chlorophenyl)-5-(quinoxalin-5-yl)-4,5-dihydro-1H-pyrazol-1-yl)-4-oxobutanoic acid]: the inhibition at 50 µM came to 18.4 ± 3.7%. As to `Cc1ccccc1S(=O)(=O)NC(=O)CCC(=O)N1N=C(c2ccc(Cl)cc2)CC1c1ccc2nccnc2c1` (centres unmarked) [Compound 124, 4-(3-(4-Chlorophenyl)-5-(quinoxalin-6-yl)-4,5-dihydro-1H-pyrazol-1-yl)-4-oxo-N-(o-tolylsulfonyl) butanamide], the inhibition at 10 µM was 12.7 ± 0.8%. Still for that read-out and setting: to `O=C(O)CCC(=O)N1N=C(c2ccc(-c3ccc4c(c3)OCO4)cc2)CC1c1ccc2nccnc2c1` (centres unmarked) [Compound 103, 4-(3-(4-(Benzo[d][1,3]dioxol-5-yl)phenyl)-5-(quinoxalin-6-yl)-4,5-dihydro-1H-pyrazol-1-yl)-4-oxobutanoic acid] belongs 24.8 ± 6.2%. Take `O=C(O)CCC(=O)N1N=C(c2ccc(-c3ccc(Cl)cc3Cl)cc2)CC1c1ccc2nccnc2c1` (centres unmarked) [Compound 26, 4-(3-(2′,4′-Dichloro-[1,1′-biphenyl]-4-yl)-5-(quinoxalin-6-yl)-4,5-dihydro-1H-pyrazol-1-yl)-4-oxobutanoic acid]: the inhibition at 10 µM is 65.8 ± 3.7% and the inhibition at 50 µM is 96 ± 1.1%. As to `CC(C)Sc1ccc(-c2ccc(C3=NN(C(=O)CCC(=O)O)C(c4ccc5nccnc5c4)C3)cc2)cc1` (centres unmarked) [Compound 93, 4-(3-(4′-(Isopropylthio)-[1,1′-biphenyl]-4-yl)-5-(quinoxalin-6-yl)-4,5-dihydro-1H-pyrazol-1-yl)-4-oxobutanoic acid], the inhibition at 10 µM turned out to be 49.1 ± 10.8%. `O=C(O)CCC(=O)N1N=C(c2ccc(-c3cccnc3)cc2)CC1c1ccc2nccnc2c1` (centres unmarked) [Compound 30, 4-Oxo-4-(3-(4-(pyridin-3-yl)phenyl)-5-(quinoxalin-6-yl)-4,5-dihydro-1H-pyrazol-1-yl)butanoic acid]: the inhibition at 50 µM came out at 9.3 ± 2.8%. On the same count and under the same terms, to `CC(C)(C)C(=O)OCOC(=O)CCC(=O)N1N=C(c2ccc(Cl)cc2)CC1c1ccc2nccnc2c1` (centres unmarked) [Compound 54, (Pivaloyloxy)methyl 4-(3-(4-chlorophenyl)-5-(quinoxalin-6-yl)-4,5-dihydro-1H-pyrazol-1-yl)-4-oxobutanoate] belongs 23.8 ± 9.4%. As for `O=C(O)c1cccc(N2N=C(c3cccc(-c4ccccc4)c3)CC2c2ccc3nccnc3c2)c1` (centres unmarked) [Compound 114, 3-(3-([1,1′-Biphenyl]-3-yl)-5-(quinoxalin-6-yl)-4,5-dihydro-1H-pyrazol-1-yl)benzoic acid], the inhibition at 10 µM was 58.3 ± 16.6%. As for `CN(C)S(=O)(=O)NC(=O)CCC(=O)N1N=C(c2ccc(OC(F)(F)F)cc2)CC1c1ccc2nccnc2c1` (centres unmarked) [Compound 126, N—(N,N-Dimethylsulfamoyl)-4-oxo-4-(5-(quinoxalin-6-yl)-3-(4-(trifluoromethoxy)phenyl)-4,5-dihydro-1H-pyrazol-1-yl) butanamide], the inhibition at 10 µM was determined as 25.5 ± 3.8%.

For the molecule `O=C(O)CCC(=O)N1N=C(c2ccc(-c3ccc(OC4CC4)cc3)cc2)CC1c1ccc2nccnc2c1` (centres unmarked) [Compound 84, 4-(3-(4′-Cyclopropoxy-[1,1′-biphenyl]-4-yl)-5-(quinoxalin-6-yl)-4,5-dihydro-1H-pyrazol-1-yl)-4-oxobutanoic acid], the inhibition at 2 µM was found to be 9.8 ± 1% and the inhibition at 10 µM came to 75.1 ± 4.2%. For `O=C(O)CCC(=O)N1N=C(c2ccc(-c3ccccc3)cc2F)CC1c1ccc2nccnc2c1` (centres unmarked) [Compound 109, 4-(3-(3-Fluoro-[1,1′-biphenyl]-4-yl)-5-(quinoxalin-6-yl)-4,5-dihydro-1H-pyrazol-1-yl)-4-oxobutanoic acid], the inhibition at 10 µM came out at 40.4 ± 8.1%. `COCCOc1ccc(-c2ccc(C3=NN(C(=O)CCC(=O)O)C(c4ccc5nccnc5c4)C3)cc2)cc1` (centres unmarked) [Compound 91, 4-(3-(4′-(2-Methoxyethoxy)-[1,1′-biphenyl]-4-yl)-5-(quinoxalin-6-yl)-4,5-dihydro-1H-pyrazol-1-yl)-4-oxobutanoic acid]: the inhibition at 2 µM was under 5% and the inhibition at 10 µM is 73.2 ± 2.8%. Consider `CCOc1cc(C2CC(c3ccc(Cl)cc3)=NN2C(=O)CCC(=O)O)ccc1O` (centres unmarked) [Compound 47, 4-(3-(4-Chlorophenyl)-5-(3-ethoxy-4-hydroxyphenyl)-4,5-dihydro-1H-pyrazol-1-yl)-4-oxobutanoic acid], for which the inhibition at 50 µM is 68.3 ± 3.9%.

Take `O=C(O)CCC(=O)N1N=C(c2ccc(-c3ccc(OC(F)(F)F)cc3)cc2)CC1c1ccc2nccnc2c1` (centres unmarked) [Compound 22, 4-Oxo-4-(5-(quinoxalin-6-yl)-3-(4′-(trifluoromethoxy)-[1,1′-biphenyl]-4-yl)-4,5-dihydro-1H-pyrazol-1-yl)butanoic acid]: the inhibition at 2 µM is 23.8 ± 1.1%, the inhibition at 10 µM came to 85.1 ± 0.8% and the inhibition at 50 µM is 94.7 ± 0.8%.
